Measurements as given in patent publication US20260165954A1, “BIO[…]-AND-RESERVOIR SYSTEM FOR THE PULSED DELIVERY OF BIOACTIVE AGENTS” (University of Mississippi, priority 2022, published 2026).

Columns and labels:
[1] = Pharmacokinetics of DOI from subcutaneously implanted single-layered CAPP films; type: in vivo; settings: CD-1 mice
Description: (§1) FIGS. 12A-12G show in vivo delivery of 5HT2A agonist DOI from single- and multi-layer CAPP films. (FIG. 12A) In vitro cumulative release of DOI from 0.1 mm CAPP films. (FIG. 12B) Scheme of subcutaneous implantation of 0.1 mm DOI-loaded CAPP films and experimental time course. Pharmacokinetics of DOI released from subcutaneously implanted, single-layered CAPP films in (FIG. 12C) plasma (n=4) and (FIG. 12D) brain (n=4). (FIG. 12E) Scheme of subcutaneous implantation of multilayered CAPP films and experimental time course. Pharmacokinetics of DOI released from multilayered CAPP films in (FIG. 12F) plasma (n=4), and (FIG. 12G) brain (n=4).
(§2) To confirm that 5HT2A agonists could be effectively delivered in vivo from an implantable drug delivery system, the encapsulation and release of DOI (2,5-dimethoxy-4-iodoamphetamine) from CAPP films was investigated. DOI release was first observed from single-layered CAPP films. […] The DOI-loaded, single-layered films were next implanted subcutaneously in CD-1 mice (50:50 M:F mice) and monitored the pharmacokinetics and biodistribution of DOI after implantation (FIGS. 12B-12D). […] After this initial optimization, multilayered CAPP films with DOI encapsulated in the ‘release’ layers were generated and implanted them subcutaneously in CD-1 mice (50:50 M:F mice; FIG. 12E). […]

[2] = Pharmacokinetics of DOI from subcutaneously implanted multilayered CAPP films; type: in vivo; settings: subcutaneous multilayered CAPP films, CD-1 mice
Description: as §1, §2

[3] = In vitro release of DOI from single-layered CAPP films; type: physicochemical; settings: 0.1 mm single-layered CAPP films; FIG. 12A
Description: as §1, §2

## COc1cc(CC(C)N)c(OC)cc1I (centres unmarked) [DOI, 2,5-dimethoxy-4-iodoamphetamine]
[1]; subcutaneous 0.1 mm DOI-loaded single-layered CAPP films, plasma, FIG. 12C
  time of peak plasma concentration post-implantation: 2 h
[1]; subcutaneous single-layered CAPP films, brain, FIG. 12D
  brain distribution and clearance: rapidly accumulated in the brain after which it was cleared with similar kinetics to the blood plasma
[2]
  absorption and tissue accumulation from the first 'release' layer: rapid absorption of DOI and accumulation in the brain (as well as kidneys and liver)
[2]; FIGS. 12F-12G
  time of second pulse in plasma and organs after the first pulse: ~20 h
[3]
  in vitro release kinetics: closely mimicked that of rhodamine and FITC
